Measured values taken from publication PMC9827630, “Intra-colony venom diversity contributes to maintaining eusociality in a cooperatively breeding ant” (BMC Biology, 2023).
Where a SMILES comes first, the peptide text is derived from it. Bridges are numbered along the chain shown (N, C = ends). Where no end group is shown, it is not given here.

Columns and labels:
[1] = test system: Acinetobacter baumannii ATCC 19606; test: Antimicrobial growth inhibition (CO-ADD); type: cell-based; conditions: absorbance at 600 nm; for Max response ± SEM: percentage growth inhibition, mean ± SEM; for MIC: sigmoidal dose-response fit of growth inhibition
Protocol: (§1) Antimicrobial and cytotoxicity assays were performed by CO-ADD (The Community for Antimicrobial Drug Discovery, Institute for Molecular Bioscience, The University of Queensland). […] Percentage growth inhibition was calculated using negative controls (media only) and positive controls (no peptide). For the hemolysis assays, human whole blood was washed three times with 3 volumes of 0.9% NaCl and then resuspended in 0.9% NaCl to a concentration of 0.5 × 10^8 cells/mL. Cells were incubated for 1 h at 37°C with or without the peptide. After incubation, plates were centrifuged at 1000 g for 10 min to pellet cells and debris and hemolysis determined by measuring the supernatant absorbance at 405 nm.

[2] = test system: Escherichia coli ATCC 25922; test: Antimicrobial growth inhibition (CO-ADD); type: cell-based; conditions: absorbance at 600 nm; for Max response ± SEM: percentage growth inhibition, mean ± SEM; for MIC: sigmoidal dose-response fit of growth inhibition
Protocol: as §1

[3] = test system: Klebsiella pneumoniae ATCC 700603; test: Antimicrobial growth inhibition (CO-ADD); type: cell-based; conditions: absorbance at 600 nm; for Max response ± SEM: percentage growth inhibition, mean ± SEM; for MIC: sigmoidal dose-response fit of growth inhibition
Protocol: as §1

[4] = test system: Pseudomonas aeruginosa ATCC 27853; test: Antimicrobial growth inhibition (CO-ADD); type: cell-based; conditions: absorbance at 600 nm; for Max response ± SEM: percentage growth inhibition, mean ± SEM; for MIC: sigmoidal dose-response fit of growth inhibition
Protocol: as §1

[5] = test system: Staphylococcus aureus ATCC 43300; test: Antimicrobial growth inhibition (CO-ADD); type: cell-based; conditions: for Max response ± SEM: percentage growth inhibition, mean ± SEM; for Max response ± SEM / MIC: absorbance at 600 nm; for MIC: sigmoidal dose-response fit of growth inhibition
Protocol: as §1

[6] = test system: Candida albicans ATCC 90028; test: Antifungal growth inhibition (CO-ADD); type: cell-based; conditions: absorbance at 530 nm; for Max response ± SEM: percentage growth inhibition, mean ± SEM; for MIC: sigmoidal dose-response fit of growth inhibition
Protocol: as §1

[7] = test system: Cryptococcus neoformans var. grubii H99; ATCC 208821; test: Antifungal growth inhibition (CO-ADD); type: cell-based; conditions: for Max response ± SEM: percentage growth inhibition, difference in absorbance 600 and 570 nm after resazurin, 35°C 2 h, mean ± SEM; for MIC: sigmoidal dose-response fit of growth inhibition, resazurin read-out
Protocol: as §1

HEK293T cells = test: Cell viability assay, resazurin; type: cell-based; conditions: 100 μM peptide
Protocol: (§2) In addition to the cytotoxicity assays performed by CO-ADD, we screened the synthetic peptides for toxicity in cell viability assays using HAP1, MM96L, and HEK293T cells. peptides were reconstituted in 100% DMSO then diluted in cell media (HAP1: IMDM (Sigma Aldrich) with 10% FBS and 1% Penicillin/Streptomycin (P/S); MM96L: RPMI (Gibco) with 10% FBS, 1% P/S and 1% GlutaMAX (Gibco); HEK293T: DMEM high glucose (Gibco), with 10% FBS and 1% P/S. Trypsinized cells ([…]) were seeded in each well of a 96-well plate. 0.01 to 1000 μM peptide was added to each well after 24 h, and the cells incubated for an additional 74 h. After incubation, the medium was aspirated from each well and 150 μL of fresh medium containing a 0.002% solution of resazurin (Sigma-Aldrich) was added to the wells and incubated for 4 h at 37 °C. The absorbance was measured at 570 nm using a microplate spectrophotometer (FLUOstar Omega, BMG Labtech, Germany). Percentage cell viability at concentrations of 10 and 100 μM peptide were compared with negative control by one-way ANOVA Dunnett’s multiple comparisons test (GraphPad Prism8).

[8] = test system: MM96L cells (melanoma cell line); test: Cell viability assay, resazurin; type: cell-based; conditions: 100 μM peptide
Protocol: as §2

panel of microbes = test: Antimicrobial screening, summary over the panel of microbes; type: cell-based; conditions: all strains of the panel (for Rm54a and Rm55a: strains other than S. aureus)
Protocol: as §1

[9] = test system: Human embryonic kidney cells ATCC CRL-1573; test: Cytotoxicity assay (CO-ADD), resazurin; type: cell-based; conditions: percentage growth inhibition, resazurin fluorescence, 37°C 5% CO2; mean ± SEM
Protocol: as §1

Human red blood cells = test: Hemolysis assay (CO-ADD); type: cell-based; conditions: hemolysis, washed human blood 0.5 × 10^8 cells/mL in 0.9% NaCl, 1 h at 37°C, supernatant absorbance at 405 nm; mean ± SEM
Protocol: as §1

HEK = test: Ion permeability HEK; type: cell-based, Human; conditions: ions listed as permeant; - = none
F11 = test: Ion permeability F11; type: cell-based, mouse; conditions: ions listed as permeant; - = none
[10] = test system: Female fruit flies (D. melanogaster strain Canton-S); test: Fruit fly injection assay (lethality, paralysis, climbing); type: in vivo, Drosophila melanogaster
Protocol: Female fruit flies (D. melanogaster strain Canton-S) were injected four to six days post-emergence. Female flies were used because their larger size makes injection easier. Groups of eight female flies were assayed in triplicate for each dose tested. Injection needles were formed from glass capillary tubes (#3-000-203-G/X, Drummond, Birmingham, AL, USA) using a micropipette puller (Sutter Instrument Co. Model P-97), with the fine tip manually trimmed afterwards using scissors. Needles then were filled with mineral oil, connected to a Nanoliter 2000 microinjector ([…], Bensenville, IL USA) equipped with a foot pedal, and ~1 μL of peptide solution or water aspirated. Each group of flies were immobilized by cooling for approximately 2 min on ice, and then decanted on the top of the ‘injection stage’, a petri dish filled with ice. Under a dissecting microscope, each fly was carefully impaled on the lateral thorax behind the wing, and 50.6 nL of venom peptide or water was injected. After injection, each group of flies were returned to their 5 mL plastic tube at room temperature and their behavior observed.

HAP1 cells = test: Cell viability assay, resazurin; type: cell-based
Protocol: as §2

[11] = test system: F11 (mouse neuroblastoma × rat dorsal root ganglion (DRG) neuron hybrid) cells; test: Calcium imaging of F11 cells (FLIPR); type: cell-based; conditions: increase in [Ca2+]i, max-min fluorescence over 300 s; read-out: EC50 (F11 cells, Table S2)
Protocol: F11 (mouse neuroblastoma × rat dorsal root ganglion (DRG) neuron hybrid) cells were cultured as previously described. Cells were maintained on Ham’s F12 media supplemented with 10 % fetal bovine serum, 100 μM hypoxanthine, 0.4 μM aminopterin, and 16 μM thymidine (Hybri-MaxTM, Sigma Aldrich). 384-well imaging plates (Corning, Lowell, MA, USA) were seeded 48 h prior to imaging resulting in 90 – 95% confluence at imaging. Cells were incubated for 30 min with Calcium 4 assay component A, as per the manufacturer’s instructions (Molecular Devices, Sunnyvale, CA) in physiological salt solution (PSS; composition in mM: 140 NaCl, 11.5 D-glucose, 5.9 KCl, 1.4 MgCl2, 1.2 NaH2PO4, 5 NaHCO3, 1.8 CaCl2, 10 HEPES) at 37°C. […] Signals were read every second for 10 s before, and 300 s after, the addition of peptides in PSS supplemented with 0.1% bovine serum albumin. All data represent mean ± SEM of a representative assay in triplicate. Fluorescence changes on peptide addition were compared to addition of negative control solution (0.1% BSA in PSS). The resulting maximum-minimum fluorescence in the 300 s period after peptide addition was recorded as the response.

[12] = test system: House crickets (Acheta domesticus); test: Insect incapacitation assay, house crickets; type: in vivo
Protocol: House crickets (A. domesticus; Pisces Live Food, QLD, Australia) (average mass 50 mg), were injected intra-abdominally with 40 nmol/g of each synthetic peptide (in 2 μL water). […] Lethality was assessed at 24 h. […] To calculate dose-response curves, a four-parameter Hill equation with variable Hill slope was fitted to the data (GraphPad Prism 8.02). All data are expressed as the mean ± standard error of the mean (SEM) and are representative of at least three independent data points. The percentage of crickets incapacitated by a dose of 40 nmol/g, was compared with negative control (water injection) by one-way ANOVA Dunnett’s multiple comparisons test (GraphPad Prism8).

| Compound | Max response ± SEM [1] | MIC [1] | Max response ± SEM [2] | MIC [2] | Max response ± SEM [3] | MIC [3] | Max response ± SEM [4] | MIC [4] | Max response ± SEM [5] | MIC [5] | Max response ± SEM [6] | MIC [6] | Max response ± SEM [7] | MIC [7] | Cytotoxicity against HEK293T cells (HEK293T cells) | Cytotoxicity against MM96L cells [8] | Growth inhibition over the microbial strains examined (panel of microbes) | ion permeability HEK (HEK) | ion permeability F11 (F11) | further results |
| --- | --- | --- | --- | --- | --- | --- | --- | --- | --- | --- | --- | --- | --- | --- | --- | --- | --- | --- | --- | --- |
| CC[C@H](C)[C@H](NC(=O)[C@H](CCC(=O)O)NC(=O)[C@H](CCC(N)=O)NC(=O)[C@H](CCSC)NC(=O)[C@H](CC(N)=O)NC(=O)[C@@H](N)CO)C(=O)N[C@@H](CCSC)C(=O)N[C@@H](CCCCN)C(=O)N[C@@H](CCCCN)C(=O)N[C@@H](CC(C)C)C(=O)N[C@H]1CSSC[C@@H](C(=O)N[C@@H](CCCCN)C(=O)N[C@@H](CCSC)C(=O)N[C@@H](CC(C)C)C(=O)NCC(=O)N[C@@H](CC(C)C)C(=O)O)NC(=O)[C@H](CCSC)NC(=O)[C@H](Cc2c[nH]c3ccccc23)NC(=O)[C@H](C)NC(=O)[C@@H]2CCCN2C(=O)[C@H](CCSC)NC(=O)[C@H](CCCCN)NC(=O)[C@H](CCCCN)NC(=O)[C@H](CC(=O)O)NC(=O)[C@H]([C@@H](C)O)NC1=O [Rm9a] (H-SNMQEIMKKLCTDKKMPAWMCKMLGL-OH; disulfide 11-21; N-terminus assumed) | 9 ± 0 | >11 µM | 3 ± 2 | >11 µM | 5 ± 2 | >11 µM | 5 ± 3 | >11 µM | 3 ± 5 | >11 µM | 1 ± 2 | >11 µM | -86 ± 5 | >11 µM | cytotoxic to both HEK293T and MM96L cells | cytotoxic to both HEK293T and MM96L cells | no inhibitory activity | – | – | – |
| LWPFLISLIPTVIDLARNL-NH2 [Rm54a] | 22 ± 3 | – | 10 ± 1 | – | 10 ± 2 | – | 16 ± 1 | – | 102 ± 1 | – | 10 ± 3 | – | -15 ± 2 | – | cytotoxic against HEK293T cells | not the melanoma cell line MM96L | not affecting any of the other strains examined | Ca2+,Na+,Th+ | Ca2+,Na+,Th+ | Inhibition of S. aureus (in words) [5]: complete inhibition; Max response ± SEM [9]: 95 ± 0; Max response ± SEM (Human red blood cells): 95 ± 6; Motor behavior (climbing assay) ([10]; 5 nmol/g injected, climbing assay 5 min after injection, significant versus control): disrupted motor behavior; Cytotoxicity to HAP cells (HAP1 cells): cytotoxic to HAP cells; HAP cell viability (HAP1 cells; 10 μM peptide, n = 3 per group): significantly reduced HAP cell viability |
| VAPIVAMAGLGLFAAAVAGLDWLSKKV-NH2 [Rm1a] | 3 ± 2 | >12 µM | 9 ± 3 | >12 µM | 0 ± 2 | >12 µM | -2 ± 9 | >12 µM | -19 ± 7 | >12 µM | 67 ± 4 | >12 µM | 36 ± 7 | >12 µM | – | – | – | Ca2+,Na+,Th+ | Ca2+,Na+,Th+ | EC50 [11]: 5.7 µM; Lethality in crickets at lowest dose tested ([12]; 40 pmol/g, intra-abdominal injection, lethality assessed at 24 h): ultimately lethal; Incapacitation of crickets ([12]; 40 nmol/g, intra-abdominal injection, observed 30 min): able to incapacitate crickets; Onset of incapacitation in crickets ([12]; 40 and 4 nmol/g, delayed at lower doses): immediate; PD50 30 min (dose required to paralyze 50% of crickets 30 min after injection) ([12]; intra-abdominal injection, n = 3 per group): 0.3 nmol/g; Flies dead ([10]; 50 pmol/g injected, mean ± SD): 25.0 ± 12.5%; Flies paralyzed ([10]; 50 pmol/g injected, mean ± SD): 95.8 ± 7.2%; Instant death of flies ([10]; 5 nmol/g injected, groups of eight female flies in triplicate, mean ± SD): 100 ± 0%; LD50 5 min (dose required to kill 50% of flies 5 min after injection) ([10]; D. melanogaster, 5 min after injection): 0.17 nmol/g; PD50 5 min (dose required to paralyze 50% of flies within 5 min) ([10]; D. melanogaster, within 5 min): 23 pmol/g |
